Read-outs that look alike come from different tables or passages of the source.
Legend:
[1] = Stability of J1A, J1B and J7 at different pH values (LC-MS); format: physicochemical
Procedure: Stability of compounds J1A, J1B and J7 was evaluated at different pH values. Differential stability/conversion to the active ingredient is expected to result in condition-specific activation and thereby to higher specificity towards target pests.
Stock solutions of the compounds were prepared at concentration of 0.1 mol/L. 10 μL of the stock solutions were transferred to 0.75 ml of the buffer solutions with pH values of 4, 5, 9 and 11. The resulting solutions were incubated for 10 minutes and 3 and 24 h. After specified times samples were analyzed using LC-MS. The compounds J1A, J1B, J7 and the active compound butenyl spinosyn were quantified. It is seen that the three compounds are converted to the active form preferably in alkaline conditions.

[2] = tested on: larvae of Ostrinia nubilialis (development stage L1); assay: Insecticide efficacy, corn leaf dip, Henderson-Tilton method; format: in vivo; conditions: for insecticidal activity on Ostrinia nubilialis larvae (in words): 0.1 and 0.3 μg/mL, leaf dip; for % efficacy (Henderson-Tilton): Ostrinia, foliar
Procedure: Insecticide activities of the compounds of this invention were assessed in comparison with commercially available samples of spinosad (LGC (Dr. Ehrenstorfer); Product code: DRE-C16972830) and spinetoram (LGC (Dr. Ehrenstorfer); Product code: DRE-C16972770). Solutions of spinosyn compounds were prepared by adding 0.05% Tween 80, lowering pH to 5.95 and sonicating. Two concentrations of each compound were used, 0.1 μg/ml and 0.3 μg/mL, with each condition tested in four parallels.
Freshly collected corn leaves were dipped into the prepared solutions. After dipping leaves were left to dry at room temperature for 1 hour. Each dry leaf was then infested with 4 larvae of Ostrinia nubilialis (development stage L1), and the experimental device was incubated at 21° C.-23° C. for 24 h in order to optimize insect development. At three timings post infestation (1 day, 3 days and 6 days), the insecticide efficacy is evaluated from the number of living larvae using the Henderson-Tilton method. Untreated control was integrated for normalization and validation of larvae health.

[3] = Kinetic solubility assay; format: physicochemical; conditions: 25 °C, kinetic from dmso stock, dose conc 200 μM, 25±2° C.
Procedure: Solubility of the compounds of the invention was assessed using kinetic solubility assay and compared to solubility of butenyl spinosyn. Stock solutions of spinosyn compounds were prepared in DMSO at mM concentration). 10 uL of the stock solutions were added into 490 of in K.S. 5.4 buffer of pH 5.4 (80 mM phosphoric acid, acetic acid, boric acid buffer, adjusted the pH to pH 5.4 with 1 N HCl and 1N NaOH) or K.S. 7.4 buffer with pH of 7.4 (80 mM phosphoric acid, acetic acid, boric acid buffer, adjusted the pH to pH 7.4 with 1 N HCl and 1N NaOH). The solutions were incubated with shaking at room […] temperature (25±2° C.) for 24 hours. 200 uL of each solution were then transferred into a new MultiScreen filter plate (Membrane of polycarbonate) and filtered by millipore vacuum manifold, and the filtrate was collected. The concentrtions of tested compounds in the filtered samples were analyzed by HPLC analysis calibrated by a standard curve generated by injection of 3 standard solutions of the relevant compound with concentrations of 1, 20, 200 μM.

[4] = tested on: honey bees (Apis melifera carnica, Pollman 1879); assay: Single dose acute oral toxicity test on adult worker honey bees; format: in vivo
Procedure: Toxicity of the compounds of this invention towards honey bees (Apis melifera carnica, Pollman 1879) was assessed in comparison with commercially available samples of spinosad (LGC (Dr. Ehrenstorfer); Product code: DRE-C16972830) and the naturally produced compound butenyl spinosyn alpha 1. Solutions of spinosyn compounds were prepared in 100 mM ammonium acetate, pH=5, and later diluted in 50% (500 g/L) sucrose solution in water to final concentrations. Two final concentrations were used for each compound, 7.76 μmol/L and 15.53 μmol/L.
Single dose acute oral toxicity tests were conducted on adult worker bees according to previously described standard methods (Medrzycki at el., (2013)). Each compound and condition were tested in two parallels. Briefly, each parallel experiment consisted of 5 cages with 20 honey bees per cage. […] After uptake of the solutions honey bees were supplied with standard 50% sucrose solution and observed at 24 h and 48 h and the number of dead and live bees was estimated.
Ammonium acetate solution with pH 5 was used as the negative control.

[5] = 24 h, read-out: % Efficacy, dose 0.1 μg a.i./ml, 1 day post infestation
[6] = 24 h, read-out: % Efficacy, dose 0.3 μg a.i./ml, 1 day post infestation
[7] = 72 h, read-out: % Efficacy, dose 0.1 μg a.i./ml, 3 days post infestation
[8] = 72 h, read-out: % Efficacy, dose 0.3 μg a.i./ml, 3 days post infestation
[9] = 144 h, read-out: % Efficacy, dose 0.1 μg a.i./ml, 6 days post infestation
[10] = 144 h, read-out: % Efficacy, dose 0.3 μg a.i./ml, 6 days post infestation
[11] = pH 5.4, aqueous buffer, K.S. 5.4 buffer, read-out: Kinetic Solubility pH = 5.4
[12] = pH 7.4, aqueous buffer, K.S. 7.4 buffer, read-out: Kinetic Solubility pH = 7.4
[13] = single oral dose 0.078 nmol/bee, 24 h after application
[14] = single oral dose 0.078 nmol/bee, 48 h after application
[15] = single oral dose 0.155 nmol/bee, 24 h after application
[16] = single oral dose 0.155 nmol/bee, 48 h after application

Structure (SMILES)	BuSPN Area % (active butenyl spinosyn released) ([1]; buffer pH 4, 0.16 h) [%]	Compound (J1A/J1B/J7) Area % remaining ([1]; buffer pH 4, 0.16 h) [%]	BuSPN Area % (active butenyl spinosyn released) ([1]; buffer pH 4, 3 h) [%]	Compound (J1A/J1B/J7) Area % remaining ([1]; buffer pH 4, 3 h) [%]	BuSPN Area % (active butenyl spinosyn released) ([1]; buffer pH 4, 24 h) [%]	Compound (J1A/J1B/J7) Area % remaining ([1]; buffer pH 4, 24 h) [%]	BuSPN Area % (active butenyl spinosyn released) ([1]; buffer pH 5, 0.16 h) [%]	Compound (J1A/J1B/J7) Area % remaining ([1]; buffer pH 5, 0.16 h) [%]	BuSPN Area % (active butenyl spinosyn released) ([1]; buffer pH 5, 3 h) [%]	Compound (J1A/J1B/J7) Area % remaining ([1]; buffer pH 5, 3 h) [%]	BuSPN Area % (active butenyl spinosyn released) ([1]; buffer pH 5, 24 h) [%]	Compound (J1A/J1B/J7) Area % remaining ([1]; buffer pH 5, 24 h) [%]	BuSPN Area % (active butenyl spinosyn released) ([1]; buffer pH 9, 0.16 h) [%]	Compound (J1A/J1B/J7) Area % remaining ([1]; buffer pH 9, 0.16 h) [%]	BuSPN Area % (active butenyl spinosyn released) ([1]; buffer pH 9, 3 h) [%]	Compound (J1A/J1B/J7) Area % remaining ([1]; buffer pH 9, 3 h) [%]	BuSPN Area % (active butenyl spinosyn released) ([1]; buffer pH 9, 24 h) [%]	Compound (J1A/J1B/J7) Area % remaining ([1]; buffer pH 9, 24 h) [%]	BuSPN Area % (active butenyl spinosyn released) ([1]; buffer pH 11, 0.16 h) [%]	Compound (J1A/J1B/J7) Area % remaining ([1]; buffer pH 11, 0.16 h) [%]	other results
CC/C=C/[C@H]1CCC[C@H](OC2CCC([N+](C)(C)COC(=O)OC(C)C)C(C)O2)[C@@H](C)C(=O)C2=C[C@@H]3[C@@H](C=C[C@@H]4C[C@@H](OC5OC(C)C(OC)C(OC)C5OC)C[C@@H]34)[C@@H]2CC(=O)O1 (stereo partly drawn) [Compound J7]	0.0	19.2	0.0	4.1	0.0	3.8	0.2	99.2	0.3	99.7	0.5	99.2	44.4	54.2	90.8	7.6	93.8	0.6	93.1	6.7	BuSPN Area % (active butenyl spinosyn released) ([1]; buffer pH 11, 3 h): 99.8%; Compound (J1A/J1B/J7) Area % remaining ([1]; buffer pH 11, 3 h): 0.0%; BuSPN Area % (active butenyl spinosyn released) ([1]; buffer pH 11, 24 h): 99.4%; Compound (J1A/J1B/J7) Area % remaining ([1]; buffer pH 11, 24 h): 0.0%; insecticidal activity on Ostrinia nubilialis larvae (in words) [2]: extremely potent insecticidal activity; % efficacy (Henderson-Tilton) [2, 5]: 31%; % efficacy (Henderson-Tilton) [2, 6]: 44%; % efficacy (Henderson-Tilton) [2, 7]: 73%; % efficacy (Henderson-Tilton) [2, 8]: 91%; % efficacy (Henderson-Tilton) [2, 9]: 91%; % efficacy (Henderson-Tilton) [2, 10]: 100%; solubility kinetic at 24 h [3, 11]: 192 µM; solubility kinetic at 24 h [3, 12]: 145 µM; % of surviving honey bees [4, 13]: 96%; % of surviving honey bees [4, 14]: 94%; % of surviving honey bees [4, 15]: 85%; % of surviving honey bees [4, 16]: 63%
CC/C=C/[C@H]1CCC[C@H](OC2CCC([N+](C)(C)COC(=O)C(C)(C)C)C(C)O2)[C@@H](C)C(=O)C2=C[C@@H]3[C@@H](C=C[C@@H]4C[C@@H](OC5OC(C)C(OC)C(OC)C5OC)C[C@@H]34)[C@@H]2CC(=O)O1 (stereo partly drawn) [Compound J1A]	0.0	5.7	0.0	2.0	0.0	0.1	0.1	99.4	0.1	99.3	1.7	97.4	32.6	66.4	71.8	26.6	46.6	0.0	80.7	18.4	BuSPN Area % (active butenyl spinosyn released) ([1]; buffer pH 11, 3 h): 98.0%; Compound (J1A/J1B/J7) Area % remaining ([1]; buffer pH 11, 3 h): 0.5%; insecticidal activity on Ostrinia nubilialis larvae (in words) [2]: extremely potent insecticidal activity; % efficacy (Henderson-Tilton) [2, 5]: 2%; % efficacy (Henderson-Tilton) [2, 6]: 0%; % efficacy (Henderson-Tilton) [2, 7]: 44%; % efficacy (Henderson-Tilton) [2, 8]: 63%; % efficacy (Henderson-Tilton) [2, 9]: 89%; % efficacy (Henderson-Tilton) [2, 10]: 100%; solubility kinetic at 24 h [3, 11]: 189 µM; solubility kinetic at 24 h [3, 12]: 143 µM; % of surviving honey bees [4, 13]: 95%; % of surviving honey bees [4, 14]: 92%; % of surviving honey bees [4, 15]: 89%; % of surviving honey bees [4, 16]: 75%

— US20240209014A1, “NOVEL SPINOSYN PRODRUGS” (Acies Bio d.o.o., priority 2021, published 2024)
